As a reminder, the AC50 is the concentration at which the activity in the assay is half-maximal. For orientation: IC50 means the concentration that inhibits the measured activity by half. A word on the EC50: it is the concentration needed to bring the measured effect to its halfway point.

Calls of active or inactive are those of the source. Some results are limits rather than exact numbers.

The values that follow come from ChEMBL document CHEMBL1201862, “PubChem BioAssay data set” (2004).

For series [1], the target named is Lysine-specific demethylase 4A (Homo sapiens, UniProt O75164). The series is described as follows: inhibition of JMJD2A H3K9me3 demethylation – biochemical, DELFIA europium, cherry-picked samples, selectivity assay for GASC-1 inhibitor project, dose response (AID 488840).
Lysine-specific demethylase 4A, sequence (O75164 whole entry): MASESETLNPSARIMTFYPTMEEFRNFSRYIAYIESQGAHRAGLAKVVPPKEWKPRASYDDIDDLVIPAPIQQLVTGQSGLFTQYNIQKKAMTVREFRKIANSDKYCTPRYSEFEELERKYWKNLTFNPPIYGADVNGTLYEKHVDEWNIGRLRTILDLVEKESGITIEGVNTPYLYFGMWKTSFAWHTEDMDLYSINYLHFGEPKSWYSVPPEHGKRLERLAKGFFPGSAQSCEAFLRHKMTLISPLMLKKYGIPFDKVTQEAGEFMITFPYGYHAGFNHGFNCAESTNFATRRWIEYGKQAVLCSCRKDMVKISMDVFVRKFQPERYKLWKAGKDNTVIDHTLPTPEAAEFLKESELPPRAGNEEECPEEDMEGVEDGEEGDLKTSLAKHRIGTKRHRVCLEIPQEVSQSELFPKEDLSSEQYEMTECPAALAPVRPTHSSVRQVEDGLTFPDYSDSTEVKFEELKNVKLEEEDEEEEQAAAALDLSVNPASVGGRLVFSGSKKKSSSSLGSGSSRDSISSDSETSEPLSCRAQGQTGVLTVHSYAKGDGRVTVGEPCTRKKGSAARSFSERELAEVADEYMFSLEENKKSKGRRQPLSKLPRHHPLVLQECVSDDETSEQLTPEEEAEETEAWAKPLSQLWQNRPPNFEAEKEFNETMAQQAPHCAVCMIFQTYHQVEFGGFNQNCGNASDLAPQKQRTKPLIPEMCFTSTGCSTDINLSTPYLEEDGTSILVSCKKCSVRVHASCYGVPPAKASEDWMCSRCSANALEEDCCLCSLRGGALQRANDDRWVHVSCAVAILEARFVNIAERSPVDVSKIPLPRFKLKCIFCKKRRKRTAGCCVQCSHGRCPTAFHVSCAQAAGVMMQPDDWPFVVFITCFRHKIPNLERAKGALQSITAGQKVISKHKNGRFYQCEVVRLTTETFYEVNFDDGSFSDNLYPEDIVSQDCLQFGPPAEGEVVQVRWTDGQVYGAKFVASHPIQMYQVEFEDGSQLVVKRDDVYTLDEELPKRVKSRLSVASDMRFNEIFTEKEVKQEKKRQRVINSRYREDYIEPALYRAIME
In series [2] the target is T1, Lysine-specific demethylase 4C (Homo sapiens, UniProt Q9H3R0).
T1 sequence (Q9H3R0 whole entry): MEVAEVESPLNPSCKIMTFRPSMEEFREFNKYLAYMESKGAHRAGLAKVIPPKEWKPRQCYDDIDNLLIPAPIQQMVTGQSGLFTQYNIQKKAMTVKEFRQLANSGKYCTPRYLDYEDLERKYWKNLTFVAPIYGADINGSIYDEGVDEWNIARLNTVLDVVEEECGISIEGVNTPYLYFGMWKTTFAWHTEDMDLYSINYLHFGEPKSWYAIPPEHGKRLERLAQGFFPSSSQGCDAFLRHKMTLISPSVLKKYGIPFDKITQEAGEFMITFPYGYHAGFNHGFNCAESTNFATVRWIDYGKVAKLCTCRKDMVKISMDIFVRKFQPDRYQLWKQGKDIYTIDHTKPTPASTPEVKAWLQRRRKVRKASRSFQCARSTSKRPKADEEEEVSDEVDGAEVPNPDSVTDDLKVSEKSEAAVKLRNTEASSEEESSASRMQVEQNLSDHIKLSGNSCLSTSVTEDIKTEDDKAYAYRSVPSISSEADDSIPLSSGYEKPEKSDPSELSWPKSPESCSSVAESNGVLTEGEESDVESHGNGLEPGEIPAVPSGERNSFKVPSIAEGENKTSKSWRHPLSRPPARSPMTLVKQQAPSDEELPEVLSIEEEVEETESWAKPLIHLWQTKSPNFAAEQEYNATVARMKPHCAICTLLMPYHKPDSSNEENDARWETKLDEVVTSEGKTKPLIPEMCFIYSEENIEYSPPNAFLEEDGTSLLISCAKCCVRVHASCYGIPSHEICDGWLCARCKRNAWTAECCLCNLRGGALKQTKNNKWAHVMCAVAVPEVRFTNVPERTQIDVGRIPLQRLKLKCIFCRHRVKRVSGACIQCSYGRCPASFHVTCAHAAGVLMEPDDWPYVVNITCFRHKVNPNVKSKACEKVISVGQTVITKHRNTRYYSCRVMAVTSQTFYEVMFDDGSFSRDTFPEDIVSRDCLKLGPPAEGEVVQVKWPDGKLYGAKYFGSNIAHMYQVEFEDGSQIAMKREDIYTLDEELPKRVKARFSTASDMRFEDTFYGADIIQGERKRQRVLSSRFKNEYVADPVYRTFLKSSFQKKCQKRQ
Put plainly: inhibition of JMJD2C H3K9me3 demethylation – biochemical, DELFIA europium, cherry-picked samples, dose response (AID 488835). Type of series: functional.

The target in series [3] is T2, Nucleotide-binding oligomerization domain-containing protein 1 (Homo sapiens, UniProt Q9Y239).
T2 sequence (Q9Y239 whole entry): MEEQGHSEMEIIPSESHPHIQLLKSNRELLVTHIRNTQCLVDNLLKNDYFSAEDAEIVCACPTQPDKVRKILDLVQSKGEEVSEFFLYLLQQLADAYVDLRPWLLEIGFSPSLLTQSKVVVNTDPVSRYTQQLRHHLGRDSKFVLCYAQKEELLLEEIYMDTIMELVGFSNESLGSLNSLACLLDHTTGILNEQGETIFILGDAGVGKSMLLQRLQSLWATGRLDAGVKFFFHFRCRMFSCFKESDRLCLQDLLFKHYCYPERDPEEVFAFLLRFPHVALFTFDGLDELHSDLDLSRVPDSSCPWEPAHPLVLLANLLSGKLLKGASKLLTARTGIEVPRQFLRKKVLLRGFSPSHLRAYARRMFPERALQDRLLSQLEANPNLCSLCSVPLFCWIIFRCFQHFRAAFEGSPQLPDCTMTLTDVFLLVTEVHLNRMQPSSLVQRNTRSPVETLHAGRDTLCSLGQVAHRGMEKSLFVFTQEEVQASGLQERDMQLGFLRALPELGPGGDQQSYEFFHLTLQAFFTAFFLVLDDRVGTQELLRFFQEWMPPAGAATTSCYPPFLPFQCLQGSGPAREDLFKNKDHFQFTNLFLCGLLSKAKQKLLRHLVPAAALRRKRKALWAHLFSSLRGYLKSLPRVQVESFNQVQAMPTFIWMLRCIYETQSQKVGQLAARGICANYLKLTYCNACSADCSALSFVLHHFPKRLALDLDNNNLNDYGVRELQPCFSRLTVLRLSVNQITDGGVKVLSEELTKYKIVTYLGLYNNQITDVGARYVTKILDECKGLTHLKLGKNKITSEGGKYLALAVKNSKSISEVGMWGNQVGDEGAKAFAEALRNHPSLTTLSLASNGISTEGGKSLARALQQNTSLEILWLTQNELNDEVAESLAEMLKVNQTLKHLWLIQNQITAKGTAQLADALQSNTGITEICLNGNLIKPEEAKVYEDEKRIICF
The series is described as follows: SAR analysis of compounds that inhibit NOD1 - Set 3. [Related pubchem assays (depositor defined):AID1566, AID1575, AID1578, AID1849, AID1852, AID2333, AID2335, AID2466]. Type of series: functional.

The target in the next series is Tumor necrosis factor (Homo sapiens, UniProt P01375). Put plainly: analog potency on TNFa NF-kB signaling – cell-based, set 3, SAR follow-up (AID 2801). Type of series: functional.
Tumor necrosis factor, sequence (P01375 whole entry): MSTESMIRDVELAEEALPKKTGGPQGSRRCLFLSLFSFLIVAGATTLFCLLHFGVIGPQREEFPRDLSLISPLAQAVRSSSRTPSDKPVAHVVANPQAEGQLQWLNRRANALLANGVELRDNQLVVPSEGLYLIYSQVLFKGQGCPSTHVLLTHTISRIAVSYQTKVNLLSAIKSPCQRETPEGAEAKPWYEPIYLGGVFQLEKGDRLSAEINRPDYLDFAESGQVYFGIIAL
The subject of a further series is HEK293. The series is described as follows: SAR analysis of compounds that are cytotoxic to HEK293 - Set 3. [Related pubchem assays (depositor defined):AID1575, AID1578, AID1848, AID1849, AID2001, AID2333, AID2334, AID2335, AID2337, AID2469]. The format is functional, cell-based. The following applies: Homo sapiens.
The target in series [4] is Nucleotide-binding oligomerization domain-containing protein 2 (Homo sapiens, UniProt Q9HC29). Put plainly: inhibition of MDP-driven NOD2 NF-kB reporter – cell-based, set 3, SAR follow-up (AID 2799). Type of series: functional.
Nucleotide-binding oligomerization domain-containing protein 2, sequence (Q9HC29 whole entry, the tested form may be a part): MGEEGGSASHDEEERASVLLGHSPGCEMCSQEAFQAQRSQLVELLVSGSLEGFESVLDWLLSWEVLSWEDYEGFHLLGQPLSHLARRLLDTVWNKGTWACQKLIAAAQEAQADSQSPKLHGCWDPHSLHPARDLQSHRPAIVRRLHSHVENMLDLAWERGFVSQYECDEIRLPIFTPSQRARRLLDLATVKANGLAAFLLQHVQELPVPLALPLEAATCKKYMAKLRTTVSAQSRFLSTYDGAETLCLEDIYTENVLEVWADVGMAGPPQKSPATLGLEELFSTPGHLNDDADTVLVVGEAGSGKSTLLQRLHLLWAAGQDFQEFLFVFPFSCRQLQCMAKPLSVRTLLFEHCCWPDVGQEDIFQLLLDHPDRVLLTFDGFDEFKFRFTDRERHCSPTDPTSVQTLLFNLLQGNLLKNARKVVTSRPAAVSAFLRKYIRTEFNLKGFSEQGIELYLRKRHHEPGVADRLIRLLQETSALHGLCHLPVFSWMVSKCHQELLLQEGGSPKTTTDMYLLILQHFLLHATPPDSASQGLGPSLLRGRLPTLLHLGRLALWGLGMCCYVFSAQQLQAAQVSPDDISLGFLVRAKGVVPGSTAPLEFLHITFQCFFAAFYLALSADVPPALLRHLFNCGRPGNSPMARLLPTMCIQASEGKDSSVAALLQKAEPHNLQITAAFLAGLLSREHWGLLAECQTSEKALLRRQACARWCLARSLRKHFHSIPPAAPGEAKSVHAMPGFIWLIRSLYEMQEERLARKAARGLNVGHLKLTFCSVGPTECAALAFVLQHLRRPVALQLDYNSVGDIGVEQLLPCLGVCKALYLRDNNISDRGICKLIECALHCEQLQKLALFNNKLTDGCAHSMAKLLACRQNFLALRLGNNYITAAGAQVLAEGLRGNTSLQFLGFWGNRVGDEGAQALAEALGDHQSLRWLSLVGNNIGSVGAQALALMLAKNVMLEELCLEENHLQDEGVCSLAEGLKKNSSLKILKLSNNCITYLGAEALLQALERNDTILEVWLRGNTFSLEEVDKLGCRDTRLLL
In series [5] the target is T3, Tyrosine-protein phosphatase non-receptor type 7 (Homo sapiens, UniProt P35236).
T3 sequence (P35236 whole entry): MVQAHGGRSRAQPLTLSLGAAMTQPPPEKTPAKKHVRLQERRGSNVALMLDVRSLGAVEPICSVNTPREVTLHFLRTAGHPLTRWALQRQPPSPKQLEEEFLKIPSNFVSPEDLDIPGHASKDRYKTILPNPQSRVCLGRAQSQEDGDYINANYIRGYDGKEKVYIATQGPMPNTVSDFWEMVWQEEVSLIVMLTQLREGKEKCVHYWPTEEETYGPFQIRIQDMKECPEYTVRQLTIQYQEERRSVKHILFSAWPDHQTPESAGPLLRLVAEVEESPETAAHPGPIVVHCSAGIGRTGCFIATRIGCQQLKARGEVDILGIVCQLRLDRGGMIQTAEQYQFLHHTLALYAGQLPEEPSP
Type of series: functional.

In series [6] the target is T4, Tyrosine-protein phosphatase non-receptor type 22 (Homo sapiens, UniProt Q9Y2R2).
T4 sequence (Q9Y2R2 whole entry): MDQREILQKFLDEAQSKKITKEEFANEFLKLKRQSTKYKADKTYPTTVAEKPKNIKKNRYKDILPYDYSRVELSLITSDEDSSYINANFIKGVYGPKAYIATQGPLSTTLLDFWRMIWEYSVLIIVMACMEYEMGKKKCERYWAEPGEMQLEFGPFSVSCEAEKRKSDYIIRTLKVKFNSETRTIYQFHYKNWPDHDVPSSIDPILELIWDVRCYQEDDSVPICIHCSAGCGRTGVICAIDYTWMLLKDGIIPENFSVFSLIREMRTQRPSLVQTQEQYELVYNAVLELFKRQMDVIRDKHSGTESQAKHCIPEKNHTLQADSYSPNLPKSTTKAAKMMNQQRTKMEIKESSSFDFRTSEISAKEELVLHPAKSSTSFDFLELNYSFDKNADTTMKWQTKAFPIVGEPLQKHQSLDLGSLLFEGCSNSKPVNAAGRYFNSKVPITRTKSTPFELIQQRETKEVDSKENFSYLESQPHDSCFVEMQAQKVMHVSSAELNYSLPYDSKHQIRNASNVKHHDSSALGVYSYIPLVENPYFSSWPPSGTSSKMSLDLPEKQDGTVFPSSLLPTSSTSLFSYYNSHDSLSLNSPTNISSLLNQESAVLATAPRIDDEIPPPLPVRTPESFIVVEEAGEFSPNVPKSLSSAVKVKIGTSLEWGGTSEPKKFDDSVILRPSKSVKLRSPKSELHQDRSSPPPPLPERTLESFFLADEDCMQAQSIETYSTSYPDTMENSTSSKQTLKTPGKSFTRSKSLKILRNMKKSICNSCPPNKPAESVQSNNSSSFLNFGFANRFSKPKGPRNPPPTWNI
Type of series: functional.

For series [7], the target named is T4, Tyrosine-protein phosphatase non-receptor type 22. The format is functional. This is another data set of the same source.
The next series concerns the target T5, Coagulation factor XII (Homo sapiens, UniProt P00748).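 Note: activated factor XIIa alpha cleaving a fluorogenic AMC peptide substrate; inhibitor potency from loss of enzyme activity.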
T5 sequence (P00748 whole entry): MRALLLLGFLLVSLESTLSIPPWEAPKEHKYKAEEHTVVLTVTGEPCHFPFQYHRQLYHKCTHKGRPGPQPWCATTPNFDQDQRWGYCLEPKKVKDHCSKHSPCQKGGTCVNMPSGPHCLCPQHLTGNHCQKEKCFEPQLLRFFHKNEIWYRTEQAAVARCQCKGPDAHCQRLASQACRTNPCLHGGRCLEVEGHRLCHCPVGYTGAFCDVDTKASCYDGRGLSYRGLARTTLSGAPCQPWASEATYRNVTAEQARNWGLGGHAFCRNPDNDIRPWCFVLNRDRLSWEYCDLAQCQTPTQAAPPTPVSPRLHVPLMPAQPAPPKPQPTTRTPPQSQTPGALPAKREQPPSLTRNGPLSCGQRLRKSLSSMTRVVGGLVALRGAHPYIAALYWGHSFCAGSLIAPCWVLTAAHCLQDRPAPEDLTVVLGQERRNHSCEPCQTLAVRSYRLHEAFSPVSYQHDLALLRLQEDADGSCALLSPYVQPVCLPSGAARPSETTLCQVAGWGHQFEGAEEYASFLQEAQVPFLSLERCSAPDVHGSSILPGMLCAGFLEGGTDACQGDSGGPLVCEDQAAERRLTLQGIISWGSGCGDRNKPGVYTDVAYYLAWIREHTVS
The format is functional.

The nature of series [8]: viability of PTEN-deleted HCT116 cells – cell-based, HCT116 PTEN knockout, dose response (AID 1047).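 Note: HCT116 colon tumor cells with PTEN knocked out; cells exposed to compound for 60 hours before readout; potency for loss of cell viability measured by luminescence.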 Type of series: functional.
The nature of series [9]: viability of HCT116 lacking mutant beta-catenin – cell-based, human colon tumor, dose response (AID 1045).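 Note: HCT116 colon tumor cells with beta catenin knocked out; cells exposed to compound for 60 hours.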 Type of series: functional.
For another series, the target named is Cytochrome P450 2C9 (Homo sapiens, UniProt P11712).
Cytochrome P450 2C9, sequence (P11712 whole entry): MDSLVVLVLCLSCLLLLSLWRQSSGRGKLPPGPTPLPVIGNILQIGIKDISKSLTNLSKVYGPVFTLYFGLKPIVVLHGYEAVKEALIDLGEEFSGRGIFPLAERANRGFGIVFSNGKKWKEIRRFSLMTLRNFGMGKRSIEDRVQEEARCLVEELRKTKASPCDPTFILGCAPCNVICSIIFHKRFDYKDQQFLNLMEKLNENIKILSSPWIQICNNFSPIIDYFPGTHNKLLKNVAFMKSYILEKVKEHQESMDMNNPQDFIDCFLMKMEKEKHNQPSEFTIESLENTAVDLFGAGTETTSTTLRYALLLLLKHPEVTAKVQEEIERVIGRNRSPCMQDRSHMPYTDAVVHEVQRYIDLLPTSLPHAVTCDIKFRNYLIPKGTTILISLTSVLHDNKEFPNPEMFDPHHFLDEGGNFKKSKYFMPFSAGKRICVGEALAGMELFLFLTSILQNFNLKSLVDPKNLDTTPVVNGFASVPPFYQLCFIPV
Another series deals with Cytochrome P450 3A4 (Homo sapiens, UniProt P08684).
Cytochrome P450 3A4, sequence (P08684 whole entry): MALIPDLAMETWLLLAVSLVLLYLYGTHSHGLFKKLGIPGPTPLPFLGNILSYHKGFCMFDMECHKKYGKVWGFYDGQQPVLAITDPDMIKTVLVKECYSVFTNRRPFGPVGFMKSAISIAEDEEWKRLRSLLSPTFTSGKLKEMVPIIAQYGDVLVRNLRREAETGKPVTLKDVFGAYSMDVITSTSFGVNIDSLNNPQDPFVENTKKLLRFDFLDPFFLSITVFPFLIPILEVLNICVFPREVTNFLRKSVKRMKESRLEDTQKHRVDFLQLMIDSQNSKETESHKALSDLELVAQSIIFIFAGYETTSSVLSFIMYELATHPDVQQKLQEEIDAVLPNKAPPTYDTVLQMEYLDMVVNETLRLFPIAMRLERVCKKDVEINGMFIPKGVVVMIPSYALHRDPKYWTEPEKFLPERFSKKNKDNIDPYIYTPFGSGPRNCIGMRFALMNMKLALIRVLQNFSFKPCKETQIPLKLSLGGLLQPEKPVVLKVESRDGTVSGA
Series [10] deals with T6, Calpain-2 catalytic subunit (Sus scrofa, UniProt P43367).
T6 sequence (P43367 whole entry): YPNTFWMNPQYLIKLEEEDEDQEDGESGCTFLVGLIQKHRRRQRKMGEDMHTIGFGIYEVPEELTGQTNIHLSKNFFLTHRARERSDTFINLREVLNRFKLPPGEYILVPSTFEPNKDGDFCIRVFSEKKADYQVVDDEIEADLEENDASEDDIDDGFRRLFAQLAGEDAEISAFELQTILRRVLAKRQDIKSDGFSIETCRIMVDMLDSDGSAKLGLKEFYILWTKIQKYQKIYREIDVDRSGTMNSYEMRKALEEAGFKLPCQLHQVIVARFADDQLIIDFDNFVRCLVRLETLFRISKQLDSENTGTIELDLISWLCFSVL
Put plainly: m-calpain protease blockers, concentration series – biochemical, fluorogenic peptide substrate, dose response (AID 1420). Type of series: functional.

The target in series [11] is Intestinal-type alkaline phosphatase (Homo sapiens, UniProt P09923). The series is described as follows: human intestinal alkaline phosphatase activators, dose response, biochemical, luminescence, uHTS hits (AID 463120). The format is functional.
Intestinal-type alkaline phosphatase, sequence (P09923 whole entry): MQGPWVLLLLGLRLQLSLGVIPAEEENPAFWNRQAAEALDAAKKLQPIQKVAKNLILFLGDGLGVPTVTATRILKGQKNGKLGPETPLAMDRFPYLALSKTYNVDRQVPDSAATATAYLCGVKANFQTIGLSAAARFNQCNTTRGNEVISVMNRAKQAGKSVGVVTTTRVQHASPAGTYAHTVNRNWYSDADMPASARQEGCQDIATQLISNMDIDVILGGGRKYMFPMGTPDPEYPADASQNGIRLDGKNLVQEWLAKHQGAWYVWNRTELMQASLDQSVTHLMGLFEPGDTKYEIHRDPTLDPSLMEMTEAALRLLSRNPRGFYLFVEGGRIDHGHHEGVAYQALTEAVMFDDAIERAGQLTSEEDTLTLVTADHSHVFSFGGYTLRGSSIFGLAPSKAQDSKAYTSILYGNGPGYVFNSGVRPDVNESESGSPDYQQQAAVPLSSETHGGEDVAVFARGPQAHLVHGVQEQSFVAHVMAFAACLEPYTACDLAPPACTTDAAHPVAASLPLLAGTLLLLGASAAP

As to `CC(C)Oc1ccc(Cc2c(O)nc(O)nc2O)cc1`, the AC50 in [1] was 17.5 µM (active); in [2], 2.86 µM (active).

Regarding `Nc1nc2ccccc2n1S(=O)(=O)c1cccc2ccccc12`, the IC50 (in series [3]; on Tumor necrosis factor; in the series on HEK293; in series [4]) was > 20 µM (inactive) each time.

As to `Cc1nn(Cc2cccc(C(=O)NC34CC5CC(CC(C5)C3)C4)c2)c(C)c1Br`, the IC50 in [5], in [6] and in [7] was > 79.4 µM (inactive) each time.

Regarding `COc1ccc(C2C(C(C)=O)=C(O)C(=O)N2c2nccs2)cc1OC` (configuration not stated), on Coagulation factor XII, the IC50 is > 50 µM (inactive).

Turning to `Cc1ccccc1NC(=O)c1cccc2nc3ccccc3nc12`, the EC50 was 23.8 µM (active) in series [8] and 21.9 µM (active) in series [9]. Moreover, the IC50 at Coagulation factor XII is > 50 µM (inactive). Further, the AC50 is 8.91 µM (inconclusive) on Cytochrome P450 2C9 and “inconclusive” at Cytochrome P450 3A4.

Consider `Cc1cc2cc3c(cc2nc1SCC(=O)Nc1nc(C)c(C)s1)OCO3`, for which the IC50 in [10] is listed as 24.1 µM (not active). In series [11], the EC50 is 25 µM (active).
